We go through 13 molecules from patent US20110281812A1, “Compounds” (priority 2009, published 2011).

One test relates to male BALB/cJ mice. As to the kind of experiment: Lung neutrophilia induced by bacterial lipopolysaccharide in male BALB/cJ mice - Method B. Type of test: in vivo. The following applies: Mus musculus, ip, 24 h, single dose of 100 mg/kg i.p., vs LPS challenged untreated animals. The procedure:
For intraperitoneal administration (i.p.) compounds were dissolved in a final concentration of 10 mg/mL. The required amount of compound was first dissolved in dimethylsulfoxide (DMSO, Sigma) and then diluted with 0.5% (w/v) methyl-cellulose so that the final DMSO concentration was 5% (v/v). The obtained solution was applied in a dose volume of 0.1 mL per 10 g of animal. Therefore, the compound dose was 100 mg/kg.
Male BALB/cJ mice (Charles River, Germany), with an average weight of ˜25 g were randomly grouped (n=8 in testing group, 10 in positive control and 6-8 in negative control). Mice received intraperitoneally (i.p.) a single dose of 100 mg/kg of test compound. Two hours after administration, 0.4 μg of LPS (from Escherichia coli serotype 0111:B4, Sigma), dissolved in sterile saline (0.9% NaCl) in a volume of 50 μL, was intranasally administered to all experimental groups except the negative control group, which received the same volume of vehicle (saline). Animals were sacrificed approximately 24 hours after application of LPS in order to obtain bronchoalveolar lavage fluid (BALF), which was used to determine absolute number of cells and the percentage of neutrophils. […] In some experiments neutrophil levels in BALF were assessed by measurement of concentration of a neutrophil-specific enzyme myeloperoxidase (MPO). Results are then expressed as percentage of decrease in myeloperoxidase (MPO) concentration measured in BALF lysates of treated animals compared to positive control (Mouse MPO ELISA Kit, Hycult biotechnology, Nederlands). For this purpose, BALF was sonicated after addition of 1.5% Triton-X-100 (Pharmacia Biotech) in Milli-Q water and frozen at −80° C. until analysed.

In test [1] the test system is IL-6 production in LPS-stimulated murine spleenocytes. As to the kind of experiment: Inhibition of IL-6 production in LPS-stimulated murine spleenocytes in vitro. Format: cell-based. The conditions noted are these: Mus musculus, 50 μM concentration of the compound, read-out: inhibition of interleukin-6 (IL-6) production. As to the method: Test and reference substances used in an in vitro assays were dissolved in dimethyl sulfoxide (DMSO) (Sigma Chemical Co., USA) at a concentration of 50 mM and were further diluted to test concentrations in appropriate cell culture medium.
After cervical dislocation, mouse spleens were removed using sterile dissection tools. Spleens were transferred to a pre-wetted cell strainer in a 50 mL sterile conical tube and cell suspension was made by gentle puddle. Cells were centrifuged (20 min, 300×g) and resuspended in 2 mL of sterile phosphate buffered saline (PBS) (Sigma Chemical Co., USA). Red blood cells were lysed by addition of 3 mL of sterile water and occasionally gentle shaking for 1 minute. Afterwards, the tube was filled to 40 mL with DMEM medium and centrifuged (20 min, 300×g). Cells were resuspended in DMEM supplemented with 1% FBS and seeded in a 24-well plate, 1×10^6 cells per mL medium.
Final concentrations of 50 μM, 25 μM, 12.5 μM, 6.3 μM and 3.1 μM of test compounds were prepared by diluting a 50 mM DMSO stock in Dulbecco's modified Eagle medium (DMEM) (Gibco, USA) supplemented with 1% heat inactivated fetal bovine serum (FBS) (BioWest, Ringmer, United Kingdom).
Cells were pre-incubated with the test compounds for 3 h at 37° C., in an atmosphere of 5% CO2 and 90% humidity. Afterwards, cells were stimulated with 1 μg/mL lipopolysaccharide (LPS, E. coli 0111:B4, Sigma Chemical Co., USA) and incubated overnight. Concentration of IL-6 was determined in cell supernatants by sandwich ELISA using capture and detection antibodies (R&D Systems, USA) according to the manufacturer's recommendations.
Inhibition (as percentage) was calculated using the following formula:
% inhibition=[1−(concentration of IL-6 in sample−concentration of IL-6 in negative control)/(concentration of IL-6 in positive control−concentration of IL-6 in negative control)]×100.
The positive control refers to LPS-stimulated samples that were not preincubated with the compounds.
The negative control refers to unstimulated and untreated samples.

Where [2] appears, read: Neutrophil, read-out: inhibition of number of neutrophils or decrease in myeloperoxidase concentration in BALF.
Setting [3] is: read-out: inhibition of total cell number in BALF.

Read-outs that look alike come from different tables or passages of the source. A value given as a limit tells only on which side of the number the result lay.

In general, inhibition refers to the drop in the measured response relative to a control, in per cent. Regarding `CC[C@H]1OC(=O)[C@H](C)[C@@H](O[C@H]2C[C@@](C)(OC)[C@@H](O)[C@H](C)O2)[C@H](C)[C@@H](O[C@@H]2O[C@H](C)C[C@H](N(C)C)[C@H]2OCCCNC(=O)c2cccnc2)[C@](C)(O)C[C@@H](C)CN(C)[C@H](C)[C@@H](O)[C@]1(C)O` [Example 20, 2′-O-{3-[(3-Pyridinylcarbonyl)amino]propyl}-9-deoxo-9a-methyl-9a-aza-9a-homoerythromycin A], the inhibition in vivo at 100 mg/kg in the test on male BALB/cJ mice (setting [2]) and in the test with male BALB/cJ mice (setting [3]) was greater than 30% throughout. Moreover, the inhibition at 50 µM in test [1] is greater than 40%. Turning to `CC[C@H]1OC(=O)[C@H](C)[C@@H](O[C@H]2C[C@@](C)(OC)[C@@H](O)[C@H](C)O2)[C@H](C)[C@@H](O[C@@H]2O[C@H](C)C[C@H](N(C)C)[C@H]2OCCCNC(=O)CCC(=O)OC)[C@](C)(O)C[C@@H](C)CN(C)[C@H](C)[C@@H](O)[C@]1(C)O` [Example 13, 2′-O-(3-{[4-(Methyloxy)-4-oxobutanoyl]amino}propyl)-9-deoxo-9a-methyl-9a-aza-9a-homoerythromycin A], the inhibition in vivo at 100 mg/kg in the test on male BALB/cJ mice (setting [2]) and with male BALB/cJ mice (setting [3]) was greater than 50% in each case. Moreover, in test [1], the inhibition at 50 µM is greater than 40%. Take `CC[C@H]1OC(=O)[C@H](C)[C@@H](O[C@H]2C[C@@](C)(OC)[C@@H](O)[C@H](C)O2)[C@H](C)[C@@H](O[C@@H]2O[C@H](C)C[C@H](N(C)C)[C@H]2OCCCNC(=O)CN(C)C)[C@](C)(O)C[C@@H](C)CN(C)[C@H](C)[C@@H](O)[C@]1(C)O` [Example 7, 2′-O-{3-[(N,N-Dimethylglycyl)amino]propyl}-9-deoxo-9a-methyl-9a-aza-9a-homoerythromycin A]: the inhibition in vivo at 100 mg/kg in the test with male BALB/cJ mice (setting [2]) and in the test with male BALB/cJ mice (setting [3]) was greater than 30% in each case. In addition, in test [1], the inhibition at 50 µM is greater than 40%. For the molecule `CC[C@H]1OC(=O)[C@H](C)[C@@H](O[C@H]2C[C@@](C)(OC)[C@@H](O)[C@H](C)O2)[C@H](C)[C@@H](O[C@@H]2O[C@H](C)C[C@H](N(C)C)[C@H]2OCCCNC(=O)C2CCC2)[C@](C)(O)C[C@@H](C)CN(C)[C@H](C)[C@@H](O)[C@]1(C)O` [Example 15, 2′-O-{3-[(Cyclobutylcarbonyl)amino]propyl}-9-deoxo-9a-methyl-9a-aza-9a-homoerythromycin A], the inhibition in vivo at 100 mg/kg with male BALB/cJ mice (setting [2]) and in the test on male BALB/cJ mice (setting [3]) was greater than 30% each time. Besides, the inhibition at 50 µM in test [1] is greater than 40%. Consider `CC[C@H]1OC(=O)[C@H](C)[C@@H](O[C@H]2C[C@@](C)(OC)[C@@H](O)[C@H](C)O2)[C@H](C)[C@@H](O[C@@H]2O[C@H](C)C[C@H](N(C)C)[C@H]2OCCCNC(=O)c2cnc(C)cn2)[C@](C)(O)C[C@@H](C)CN(C)[C@H](C)[C@@H](O)[C@]1(C)O` [Example 18, 2′-O-(3-{[(5-Methyl-2-pyrazinyl)carbonyl]amino}propyl)-9-deoxo-9a-methyl-9a-aza-9a-homoerythromycin A], for which the inhibition in vivo at 100 mg/kg with male BALB/cJ mice (setting [2]) and in the test with male BALB/cJ mice (setting [3]) was greater than 50% in each case. Besides, the inhibition at 50 µM in test [1] was greater than 40%.

With `CC[C@H]1OC(=O)[C@H](C)[C@@H](O[C@H]2C[C@@](C)(OC)[C@@H](O)[C@H](C)O2)[C@H](C)[C@@H](O[C@@H]2O[C@H](C)C[C@H](N(C)C)[C@H]2OCCCNC(=O)c2c(C)nn(C)c2C)[C@](C)(O)C[C@@H](C)CN(C)[C@H](C)[C@@H](O)[C@]1(C)O` [Example 19, 2′-O-(3-{[(1,3,5-Trimethyl-1H-pyrazol-4-yl)carbonyl]amino}propyl)-9-deoxo-9a-methyl-9a-aza-9a-homoerythromycin A], the inhibition in vivo at 100 mg/kg in the test with male BALB/cJ mice (setting [2]) and with male BALB/cJ mice (setting [3]) was greater than 50% throughout. For the same molecule, the inhibition at 50 µM in test [1] is greater than 40%. With `CC[C@H]1OC(=O)[C@H](C)[C@@H](O[C@H]2C[C@@](C)(OC)[C@@H](O)[C@H](C)O2)[C@H](C)[C@@H](O[C@@H]2O[C@H](C)C[C@H](N(C)C)[C@H]2OCCCNC(=O)c2nccnc2N)[C@](C)(O)C[C@@H](C)CN(C)[C@H](C)[C@@H](O)[C@]1(C)O` [Example 37, 2′-O-(3-{[(3-Amino-2-pyrazinyl)carbonyl]amino}propyl)-9-deoxo-9a-methyl-9a-aza-9a-homoerythromycin A], the inhibition at 50 µM in test [1] is greater than 40%. Regarding `CC[C@H]1OC(=O)[C@H](C)[C@@H](O[C@H]2C[C@@](C)(OC)[C@@H](O)[C@H](C)O2)[C@H](C)[C@@H](O[C@@H]2O[C@H](C)C[C@H](N(C)C)[C@H]2OCCCNC(=O)[C@@H]2CCCN2C)[C@](C)(O)C[C@@H](C)CN(C)[C@H](C)[C@@H](O)[C@]1(C)O` [Example 40, 2′-O-{3-[(1-Methyl-L-prolyl)amino]propyl}-9-deoxo-9a-methyl-9a-aza-9a-homoerythromycin A], the inhibition at 50 µM in test [1] was greater than 40%.

With `CC[C@H]1OC(=O)[C@H](C)[C@@H](O[C@H]2C[C@@](C)(OC)[C@@H](O)[C@H](C)O2)[C@H](C)[C@@H](O[C@@H]2O[C@H](C)C[C@H](N(C)C)[C@H]2OCCCNC(=O)c2cncn2C)[C@](C)(O)C[C@@H](C)CN(C)[C@H](C)[C@@H](O)[C@]1(C)O` [Example 27, 2′-O-(3-{[(1-Methyl-1H-imidazol-5-yl)carbonyl]amino}propyl)-9-deoxo-9a-methyl-9a-aza-9a-homoerythromycin A], the inhibition at 50 µM in test [1] is greater than 40%. With `CC[C@H]1OC(=O)[C@H](C)[C@@H](O[C@H]2C[C@@](C)(OC)[C@@H](O)[C@H](C)O2)[C@H](C)[C@@H](O[C@@H]2O[C@H](C)C[C@H](N(C)C)[C@H]2OCCCNC(=O)c2cn(C)nc2C(F)(F)F)[C@](C)(O)C[C@@H](C)CN(C)[C@H](C)[C@@H](O)[C@]1(C)O` [Example 28, 2′-O-[3-({[1-Methyl-3-(trifluoromethyl)-1H-pyrazol-4-yl]carbonyl}amino)propyl]-9-deoxo-9a-methyl-9a-aza-9a-homoerythromycin A], the inhibition at 50 µM in test [1] was greater than 40%. `CC[C@H]1OC(=O)[C@H](C)[C@@H](O[C@H]2C[C@@](C)(OC)[C@@H](O)[C@H](C)O2)[C@H](C)[C@@H](O[C@@H]2O[C@H](C)C[C@H](N(C)C)[C@H]2OCCCNC(=O)[C@@H](N)Cc2ccccc2)[C@](C)(O)C[C@@H](C)CN(C)[C@H](C)[C@@H](O)[C@]1(C)O` [Example 10, 2′-O-[3-(L-phenylalanylamino)propyl]-9-deoxo-9a-methyl-9a-aza-9a-homoerythromycin A]: the inhibition at 50 µM in test [1] is greater than 40%. Turning to `CC[C@H]1OC(=O)[C@H](C)[C@@H](O[C@H]2C[C@@](C)(OC)[C@@H](O)[C@H](C)O2)[C@H](C)[C@@H](O[C@@H]2O[C@H](C)C[C@H](N(C)C)[C@H]2OCCCNC(=O)c2cnccn2)[C@](C)(O)C[C@@H](C)CN(C)[C@H](C)[C@@H](O)[C@]1(C)O` [Example 23, 2′-O-{3-[(2-Pyrazinylcarbonyl)amino]propyl}-9-deoxo-9a-methyl-9a-aza-9a-homoerythromycin A], in test [1], the inhibition at 50 µM was greater than 40%. Take `CC[C@H]1OC(=O)[C@H](C)[C@@H](O[C@H]2C[C@@](C)(OC)[C@@H](O)[C@H](C)O2)[C@H](C)[C@@H](O[C@@H]2O[C@H](C)C[C@H](N(C)C)[C@H]2OCCCNC(=O)CN(CC)CC)[C@](C)(O)C[C@@H](C)CN(C)[C@H](C)[C@@H](O)[C@]1(C)O` [Example 5, 2′-O-{3-[(N,N-Diethylglycyl)amino]propyl}-9-deoxo-9a-methyl-9a-aza-9a-homoerythromycin A]: the inhibition at 50 µM in test [1] was greater than 40%.
